According to US20220313626A1, “SMALL MOLECULE INHIBITORS FOR TREATING CANCER IN A SUBJECT HAVING TUMORS WITH HIGH INTERSTITIAL PRESSURE” (GUANGZHOU MAXINOVEL PHARMACEUTICALS CO., LTD., priority 2019, published 2022):

Tested on: MC-38-hPD-L1 tumor cells
Assay: Anti-tumor efficacy in MC-38-hPD-L1 models
Assay type: in vivo
Settings: MC-38-hPD-L1, C57BL/6-hPD-1 mice; 20 mg/kg, IP, BIW; 19 days
Description: Materials required for the experiment: Antibody: PD-L1 antibody Durvalumab, Product specifications: 120 mg/2.4 mL(50 mg/mL), Lot No.: 041E17C, Manufacture: AstraZeneca, purchased from Hongkong Mingchuang Medical Limited, storage at 2-8° C. Experimental animal: 120 C57BL/6-hPD-1 mice, female, 6˜8 weeks old, 18˜21 g, purchased from Jiangsu Gem Pharmatech Co. Ltd. Formulation material: castor oil (Cremophor RH40), CAS No.: 61788-85-0, Lot No.: 29761847G0, purchased from Shanghai Xietai Chemical Co. Ltd.; β-cyclodextrin (SBE-β-CD), CAS No.: 128446-35-5, Lot No.: R1804474, purchased from Shanghai Shaoyuan Chemical Co. Ltd.; DMEM culture medium, CAS No.: 11995-065, Lot No.: 2025378, purchased from Gibco Co. Ltd.; PBS, Art. No.: SH30256.01, Lot No.: AB10141338, purchased from HyClone Co. Ltd.; Fetal bovine serum: CAS No.: 10099-141, Lot No.: 1966174C, purchased from Gibco Co. Ltd.; hygromycinB: CAS No.: 10687010, Lot No.: HY069-L12 purchased from Invitrogen.
Cell culture: The MC-38 tumor cells (NCI) were maintained in vitro as a monolayer culture in DMEM medium supplemented with 10% heat inactivated fetal bovine serum, 100 μg/mL hygromycinB at 37° C. in an atmosphere of 5% CO2 in air. The tumor cells were routinely subcultured three times weekly by trypsin-EDTA treatment. The cells growing to a confluency around 70%-80% were harvested and counted for tumor inoculation.
Tumor cell inoculation and group administration: The 100 uL cell suspension containing 1×10^6 MC-38-hPD-L1 tumor cells (cells suspended in base DMEM medium) was inoculated into right dorsal subcutaneous area in mice. 6 days after inoculation, 60 tumor-bearing mice with transplanted tumors ranging from 31.49 mm^3 to 110.26 mm^3 were selected, stratified randomization was used to group and start the administration on the day of grouping.
Preparation of test substances: Preparation of formulation: 800 mL of sterile water was added into the volumetric flask with magnetic stirring to have a vortex. 100 g of castor oil (Cremophor RH40) was added with a spoon slowly into the vortex and the solution was kept stirring. 200 g of β-cyclodextrin (SBE-β-CD) was added while the solution was kept stirring until the solution was clear, and the total volume was set to 1000 mL, which contained 10% (w/v) Cremophor RH40+20% (w/v) an aqueous solution of SBE-β-CD.
Preparation of Compound Suspension: 150.92 mg compound was weighed and 12.5 mL 10% (w/v) Cremophor RH40+20% (w/v) SBE-β-CD aqueous solution were added. The suspension solution with a concentration of 12.0 mg/mL was obtained by vortex for 2 minutes and ultrasound for 30 minutes. 5.0 mL of the compound suspension solution with concentration of 12.0 mg/mL was pipetted and 5.0 mL aqueous formulation solution was added. The suspension solution with a concentration of 6.0 mg/mL was obtained by vortex for 1 minute and sonicated by ultrasound for 5 minutes. 2.0 mL of the compound suspension solution with concentration of 6.0 mg/mL was pipetted and […] was added. The suspension solution with a concentration of 3.0 mg/mL was obtained by vortex for 1 minute and sonicated by ultrasound for 5 minutes. Compound suspension solution was prepared once a day.
Preparation of hPD-L1 antibody: 0.12 mL PD-L1 antibody Durvalumab (50 mg/mL) original solution was pipetted and divided into […] in 5 mL sterile centrifugal tube, which were packed with each containing 6.0 mg. They were stored in refrigerator at 4° C. Before administration, a raw solution containing 0.12 mL and 50 mg/mL was taken, and 2.88 mL 0.9% sodium chloride solution was added to make the solution thoroughly mixed. 3 mL Duvalumab solution with the concentration 2 mg/mL was obtained.
Procedure: The mice in the vehicle group were weighed and recorded in the electronic balance according to their numbers. […]

Substance: Durvalumab [reference compound]
- TGI: 48.17%
- Tumor Volume: 341.19 ± 56.59 mm^3
